The supplement of paper PMC10307832

What was measured:
Test in all cases: relative viability (nuclei count vs DMSO), 5 days (fraction); higher = more cells survive
QS11 + Linsitinib = compound: C1CC2=C(C1)C=C(C=C2)OC3=NC(=C4C(=N3)N(C=N4)CC5=CC=C(C=C5)C6=CC=CC=C6)N[C@@H](CC7=CC=CC=C7)CO [QS11] + C[C@]1(O)C[C@@H](c2nc(-c3ccc4ccc(-c5ccccc5)nc4c3)c3c(N)nccn32)C1 [Linsitinib] (partner 1 µM)
Procedure, shortened: (§1)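 One day after seeding in 1536-well plates, lung cancer cell lines were dosed by pin tool. Dosing was either single-drug or a fixed anchor-drug dose plus five library-drug doses (not always all listed) in √10 steps. After 5 days, nuclei were stained in one fix-and-stain step and counted on 4× images, and relative viability is the nuclei count of treated wells over that of vehicle wells, given as the median of duplicate plates.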

QS11 + Decitabine = compound: C1CC2=C(C1)C=C(C=C2)OC3=NC(=C4C(=N3)N(C=N4)CC5=CC=C(C=C5)C6=CC=CC=C6)N[C@@H](CC7=CC=CC=C7)CO [QS11] + Nc1ncn([C@H]2C[C@H](O)[C@@H](CO)O2)c(=O)n1 [Decitabine] (partner 2 µM)
Procedure, shortened: as §1

[1] = compound: C[As](C)SC[C@H](NC(=O)CC[C@H](N)C(=O)O)C(=O)NCC(=O)O [Darinaparsin] + CC(C)C[C@H](NC(=O)[C@H](Cc1ccccc1)NC(=O)c1cnccn1)B(O)O [Bortezomib] (partner 0.002 µM)
Procedure, shortened: as §1

Darinaparsin + Lapatinib = compound: C[As](C)SC[C@H](NC(=O)CC[C@H](N)C(=O)O)C(=O)NCC(=O)O [Darinaparsin] + CS(=O)(=O)CCNCc1ccc(-c2ccc3ncnc(Nc4ccc(OCc5cccc(F)c5)c(Cl)c4)c3c2)o1 [Lapatinib] (partner 2 µM)
Procedure, shortened: as §1

Cell Line	relative viability (QS11 + Linsitinib; first compound 0.08 µM)	relative viability (QS11 + Linsitinib; first compound 0.253 µM)	relative viability (QS11 + Linsitinib; first compound 2.53 µM)	relative viability (QS11 + Linsitinib; first compound 8 µM)	relative viability (QS11 + Decitabine; first compound 0.08 µM)	relative viability (QS11 + Decitabine; first compound 0.253 µM)	relative viability (QS11 + Decitabine; first compound 2.53 µM)	relative viability (QS11 + Decitabine; first compound 8 µM)	relative viability ([1]; first compound 0.08 µM)	relative viability ([1]; first compound 0.8 µM)	relative viability ([1]; first compound 2.53 µM)	relative viability ([1]; first compound 8 µM)	relative viability (Darinaparsin + Lapatinib; first compound 0.08 µM)	relative viability (Darinaparsin + Lapatinib; first compound 0.8 µM)	relative viability (Darinaparsin + Lapatinib; first compound 2.53 µM)	relative viability (Darinaparsin + Lapatinib; first compound 8 µM)	relative viability (QS11 + Linsitinib; first compound 0.8 µM)	relative viability (QS11 + Decitabine; first compound 0.8 µM)
HCC-366	0.696	0.575	0.355	0.303	0.346	0.329	0.369	0.192	1.71	1.11	0.768	1.94	1.63	0.95	1.03	1.67	–	–
NCI-H2347	1.04	0.955	0.712	1.11	0.587	0.563	0.694	0.659	1.18	0.742	0.831	1.16	1.23	0.883	0.919	1.1	0.777	0.582
201T	1.01	1.01	1.01	0.888	0.8	0.907	0.901	0.694	1.1	1.09	1.06	1.15	1.05	1.03	1.02	0.76	0.847	0.74
NCI-H1993	0.622	0.718	0.7	0.857	0.614	0.621	0.543	0.573	1.24	0.875	1.31	1.04	0.854	0.736	0.722	0.534	0.682	0.655
